According to patent US20210253575A1, “PYRROLIDINE AMINE COMPOUNDS FOR THE TREATMENT OF AUTOIMMUNE DISEASE” (Hoffmann-La Roche Inc., priority 2018, published 2021):

Target: T1, human TLR8 (Homo sapiens, UniProt Q9NR97)
T1 sequence (Q9NR97 27-1041): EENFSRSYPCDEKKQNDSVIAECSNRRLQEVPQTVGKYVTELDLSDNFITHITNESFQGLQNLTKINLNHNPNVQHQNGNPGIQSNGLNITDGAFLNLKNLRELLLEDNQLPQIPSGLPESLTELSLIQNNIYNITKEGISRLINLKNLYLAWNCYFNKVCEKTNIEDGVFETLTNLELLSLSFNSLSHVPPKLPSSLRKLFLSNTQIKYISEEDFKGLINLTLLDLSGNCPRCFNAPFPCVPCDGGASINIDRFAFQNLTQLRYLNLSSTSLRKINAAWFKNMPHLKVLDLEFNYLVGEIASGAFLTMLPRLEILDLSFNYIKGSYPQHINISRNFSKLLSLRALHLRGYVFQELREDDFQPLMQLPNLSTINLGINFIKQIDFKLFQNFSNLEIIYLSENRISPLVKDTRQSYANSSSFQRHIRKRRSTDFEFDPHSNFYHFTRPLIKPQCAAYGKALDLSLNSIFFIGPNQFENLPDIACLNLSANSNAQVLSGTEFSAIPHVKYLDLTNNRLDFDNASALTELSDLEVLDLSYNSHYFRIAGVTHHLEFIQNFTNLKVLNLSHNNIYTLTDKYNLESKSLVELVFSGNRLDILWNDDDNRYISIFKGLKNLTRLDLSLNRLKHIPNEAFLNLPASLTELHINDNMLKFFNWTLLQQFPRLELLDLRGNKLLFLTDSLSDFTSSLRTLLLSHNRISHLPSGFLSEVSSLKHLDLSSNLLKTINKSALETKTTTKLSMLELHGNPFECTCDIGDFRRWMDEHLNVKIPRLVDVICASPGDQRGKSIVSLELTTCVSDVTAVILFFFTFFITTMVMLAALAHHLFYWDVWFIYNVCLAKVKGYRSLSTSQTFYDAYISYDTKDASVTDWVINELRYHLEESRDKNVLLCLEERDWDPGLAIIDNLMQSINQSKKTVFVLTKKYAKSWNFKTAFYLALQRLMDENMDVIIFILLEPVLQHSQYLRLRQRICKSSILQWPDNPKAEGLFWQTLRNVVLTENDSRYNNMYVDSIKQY
Assay: HEK293-Blue-hTLR-8 cells assay (SEAP reporter, R848 stimulation)
Type: cell-based
Settings: HEK293-Blue-hTLR8 cells, R848 ligand, 20 hrs incubation
Description: The following tests were carried out in order to determine the activity of the compounds of formula (I) in HEK293-Blue-hTLR-7/8/9 cells assay.
HEK293-Blue-hTLR-8 Cells Assay:
A stable HEK293-Blue-hTLR-8 cell line was purchased from InvivoGen (Cat. #: hkb-htlr8, San Diego, Calif., USA). These cells were originally designed for studying the stimulation of human TLR8 by monitoring the activation of NF-κB. A SEAP (secreted embryonic alkaline phosphatase) reporter gene was placed under the control of the IFN-β minimal promoter fused to five NF-κB and AP-1-binding sites. The SEAP was induced by activating NF-κB and AP-1 via stimulating HEK-Blue hTLR8 cells with TLR8 ligands. Therefore the reporter expression was declined by TLR8 antagonist under the stimulation of a ligand, such as R848, for incubation of 20 hrs. The cell culture supernatant SEAP reporter activity was determined using QUANTI-Blue™ kit (Cat. #: rep-qb1, Invivogen, San Diego, Ca, USA) at a wavelength of 640 nm, a detection medium that turns purple or blue in the presence of alkaline phosphatase.
HEK293-Blue-hTLR8 cells were incubated at a density of 250,000˜450,000 cells/mL in a volume of 170 μL in a 96-well plate in Dulbecco's Modified Eagle's medium (DMEM) containing 4.5 g/L glucose, 50 U/mL penicillin, […], […], 2 mM L-glutamine, 10% (v/v) heat-inactivated fetal bovine serum with addition of 20 μL test compound in a serial dilution in the presence of final DMSO at 1% and 10 μL of 60 uM R848 in above DMEM, perform incubation under 37° C. in a CO2 incubator for 20 hrs. Then 20 μL of the supernatant from each well was incubated with 180 μL Quanti-blue substrate solution at 37° C. for 2 hrs and the absorbance was read at 620-655 nm using a spectrophotometer. The signalling pathway that TLR8 activation leads to downstream NF-κB activation has been widely accepted, and therefore similar reporter assay was modified for evaluating TLR8 antagonist.

Compound | IC50 [µM]
N#Cc1ccc(N2C[C@H](CN3CCC4(CC3)CNCCO4)[C@@H](C(F)(F)F)C2)c2nccnc12 [Example 70, 8-[(3S,4R)-3-(1-oxa-4,9-diazaspiro[5.5]undecan-9-ylmethyl)-4-(trifluoromethyl)pyrrolidin-1-yl]quinoxaline-5-carbonitrile] | 0.02
N#Cc1ccc(N2CC(CN3CCC(N)CC3)C3(CC3)C2)c2nccnc12 (stereo not drawn) [Example 68, 8-[7-[(4-Amino-1-piperidyl)methyl]-5-azaspiro[2.4]heptan-5-yl]quinoxaline-5-carbonitrile] | 0.051
N#Cc1ccc(N2C[C@H](CN3CCC4(CCCNC4)C3)[C@@H](C(F)(F)F)C2)c2cccnc12 (stereo partly drawn) [Example 6, 5-[(3S,7R)-3-(2,9-diazaspiro[4.5]decan-2-ylmethyl)-4-(trifluoromethyl)pyrrolidin-1-yl]quinoline-8-carbonitrile] | 0.039
N#Cc1ccc(N2C[C@H](CN3CCC4(CCNC4)CC3)[C@@H](C(F)(F)F)C2)c2cccnc12 [Example 54, 5-[(3S,4R)-3-(2,8-Diazaspiro[4.5]decan-8-ylmethyl)-4-(trifluoromethyl)pyrrolidin-1-yl]quinoline-8-carbonitrile] | 0.044
N#Cc1ccc(N2C[C@H](CN3CCC(N)CC3)[C@@H](C(F)(F)F)C2)c2nccnc12 [Example 51, 8-[(3S,4R)-3-[(4-amino-1-piperidyl)methyl]-4-(trifluoromethyl)pyrrolidin-1-yl]quinoxaline-5-carbonitrile] | 0.057
N#Cc1ccc(N2C[C@H](CN3CCCC(C(N)=O)C3)[C@@H](C(F)(F)F)C2)c2nccnc12 (stereo partly drawn) [Example 69, 1-[[(3S,4R)-1-(S-cyanoquinoxalin-5-yl)-4-(trifluoromethyl)pyrrolidin-3-yl]methyl]piperidine-3-carboxamide] | 0.729
N#Cc1ccc(N2C[C@H](CN3CCC(N4CCCC4)CC3)[C@@H](C(F)(F)F)C2)c2nccnc12 [Example 60, 8-[(3S,4R)-3-[(4-Pyrrolidin-1-yl-1-piperidyl)methyl]-4-(trifluoromethyl)pyrrolidin-1-yl]quinoxaline-5-carbonitrile] | 0.043
N#Cc1ccc(N2CC(CN3CCC4(CCNCC4)CC3)C3(CC3)C2)c2nccnc12 (stereo not drawn) [Example 16, 8-[7-(3,9-Diazaspiro[5.5]undecan-3-ylmethyl)-5-azaspiro[2.4]heptan-5-yl]quinoxaline-5-carbonitrile] | 0.133
N#Cc1ccc(N2CC(CN3CC4(CC(N)C4)C3)C3(CC3)C2)c2nccnc12 (stereo not drawn) [Example 42, 8-[7-[(6-Amino-2-azaspiro[3.3]heptan-2-yl)methyl]-5-azaspiro[2.4]heptan-5-yl]quinoxaline-5-carbonitrile] | 0.161
N#Cc1ccc(N2C[C@H](CN3CCC4(CCNCC4)C3)[C@@H](C(F)(F)F)C2)c2nccnc12 [Example 46, 8-[(3S,4R)-3-(2,8-diazaspiro[4.5]decan-2-ylmethyl)-4-(trifluoromethyl)pyrrolidin-1-yl]quinoxaline-5-carbonitrile] | 0.067
FC(F)(F)c1ccc(N2CC(CN3CCC4(CCNCC4)CC3)C3(CC3)C2)c2nccnc12 (stereo not drawn) [Example 31, 3-[[5-[8-(Trifluoromethyl)quinoxalin-5-yl]-5-azaspiro[2.4]heptan-7-yl]methyl]-3,9-diazaspiro[5.5]undecane] | 0.418
C[C@@H]1CN(c2ccc(C(F)(F)F)c3nccnc23)C[C@H]1CNC1CCCNCC1 (stereo partly drawn) [Example 40] | 0.742
C[C@H]1CN(c2ccc(C#N)c3nccnc23)C[C@@H]1CN1CCC2(CCNCC2)CC1 [Example 17, 8-[(3S,4R)-3-(3,9-diazaspiro[5.5]undecan-3-ylmethyl)-4-methyl-pyrrolidin-1-yl]quinoxaline-5-carbonitrile] | 0.065
N#Cc1ccc(N2CC(CN3CCC4(CCCNC4)CC3)C3(CC3)C2)c2nccnc12 (stereo not drawn) [Example 13, 8-[7-(2,9-Diazaspiro[5.5]undecan-9-ylmethyl)-5-azaspiro[2.4]heptan-5-yl]quinoxaline-5-carbonitrile] | 0.05
CNCC1CCN(C[C@H]2CN(c3ccc(C#N)c4nccnc34)C[C@@H]2C(F)(F)F)CC1 [Example 81, 8-[(3S,4R)-3-[[4-(methylaminomethyl)-1-piperidyl]methyl]-4-(trifluoromethyl)pyrrolidin-1-yl]quinoxaline-5-carbonitrile] | 0.025
N#Cc1ccc(N2C[C@@H](CN3CCC4(CCNC4)C3)[C@H](C(F)F)C2)c2cccnc12 (relative stereo) [Example 34, 5-[Trans-3-(2,7-diazaspiro[4.4]nonan-2-ylmethyl)-4-(difluoromethyl)pyrrolidin-1-yl]quinoline-8-carbonitrile] | 0.373
N#Cc1ccc(N2C[C@H](CNC3CCNCC3)[C@@H](C(F)(F)F)C2)c2nccnc12 [Example 71, 8-[(3S,4R)-3-[(4-piperidylamino)methyl]-4-(trifluoromethyl)pyrrolidin-1-yl]quinoxaline-5-carbonitrile] | 0.094
N#Cc1ccc(N2C[C@H](CN3CCC(N4CCCCC4)CC3)[C@@H](C(F)(F)F)C2)c2cccnc12 [Example 10, 5-[(3S,4R)-3-[[4-(1-piperidyl)-1-piperidyl]methyl]-4-(trifluoromethyl)pyrrolidin-1-yl]quinoline-8-carbonitrile] | 0.052
N#Cc1ccc(N2CC(CN3C[C@H]4CNC[C@H]4C3)C3(CC3)C2)c2nccnc12 (stereo partly drawn) [Example 18, 8-[7-[[(3aR,6aS)-2,3,3a,4,6,6a-hexahydro-H-pyrrolo[3,4-c]pyrrol-5-yl]methyl]-5-azaspiro[2.4]heptan-5-yl]quinoxaline-5-carbonitrile] | 0.082
N#Cc1ccc(N2CC(CN3CCC4(CCCNC4)C3)C3(CC3)C2)c2nccnc12 (stereo not drawn) [Example 22, 8-[7-(2,9-Diazaspiro[4.5]decan-2-ylmethyl)-5-azaspiro[2.4]heptan-5-yl]quinoxaline-5-carbonitrile] | 0.079
N#Cc1ccc(N2C[C@@H](CN3CCC4(CCNCC4)CC3)[C@H](C(F)F)C2)c2cccnc12 (relative stereo) [Example 27, 5-[Trans-3-(3,9-diazaspiro[5.5]undecan-3-ylmethyl)-4-(difluoromethyl)pyrrolidin-1-yl]quinoline-8-carbonitrile] | 0.454
N#Cc1ccc(N2C[C@H](CN3CC4(CC(N)C4)C3)[C@@H](C(F)(F)F)C2)c2nccnc12 [Example 47, 8-[(3S,4R)-3-[(6-amino-2-azaspiro[3.3]heptan-2-yl)methyl]-4-(trifluoromethyl)pyrrolidin-1-yl]quinoxaline-5-carbonitrile] | 0.074
N#Cc1ccc(N2C[C@H](CN3CC4CCC(C3)C4N)[C@@H](C(F)(F)F)C2)c2nccnc12 (stereo partly drawn) [Example 73, 8-[(3S,4R)-3-[(8-amino-3-azabicyclo[3.2.1]octan-3-yl)methyl]-4-(trifluoromethyl)pyrrolidin-1-yl]quinoxaline-5-carbonitrile] | 0.035
N#Cc1ccc(N2C[C@H](CN3CC4(CCCNC4)C3)[C@@H](C(F)(F)F)C2)c2cccnc12 [Example 8, 5-[(3S,7R)-3-(2,8-diazaspiro[3.5]nonan-2-ylmethyl)-4-(trifluoromethyl)pyrrolidin-1-yl]quinoline-8-carbonitrile] | 0.055
